Each structure is given as a SMILES string. pIC50: −log10 of the molar value.

This assay concerns rat aorta. Description: inhibition of calcium-induced contraction (change in tension) of spirally cut strips of rat aorta in K+ 45 mM saline. As to conditions: 0.75 h, 45 millimolar potassium, 2 millimolar calcium, 45 minutes, read-out: IC50 (molar concentration required to reduce the response by 50%). The assay is classed as cell-based. How it is done:
The ability of the compounds to inhibit the movement of calcium into the cell is shown by their effectiveness in reducing the response of isolated heart tissue to an increase in calcium ion concentration in vitro. The test is performed by mounting spirally cut strips of rat aorta with one end fixed and the other attached to a force transducer. The tissue is immersed in a bath of physiological saline solution containing potassium ions at a concentration of 45 millimolar and no calcium. Calcium chloride is added to the bath with a pipette to give a final calcium ion concentration of 2 millimolar. The change in tension caused by the resulting contraction of the tissue is noted. The bath is drained and replaced with fresh saline solution and, after 45 minutes, the test is repeated with the particular compound under test present in the saline solution. The concentration of compound required to reduce the response by 50% (IC50) is recorded.
The molar concentrations of the compounds required to reduce the response by 50% in the test specified on pages 16-17 are given below (1M=1 gm.Mole/liter).
`CCOC(=O)C1=C(COCCNc2cc[nH]c(=O)n2)NC(C)=C(C(=O)OC)C1c1ccccc1Cl` (centres unmarked) [Example 12]: the pIC50 is 7.54.

Regarding `CCOC(=O)C1=C(COCCNc2nc(N)n(C)n2)NC(C)=C(C(=O)OC)C1c1cccc(Cl)c1Cl` (centres unmarked) [Example 5], the pIC50 is 8.52.

Turning to `CCOC(=O)C1=C(COCCNc2ncc(S(=O)(=O)N(C)C)s2)NC(C)=C(C(=O)OC)C1c1ccccc1Cl` (centres unmarked) [Example 26], the pIC50 is 8.43.

On to `CCOC(=O)C1=C(COCCNc2nc(N)nc(N)n2)NC(C)=C(C(=O)OC)C1c1ccccc1Cl` (centres unmarked) [Example 11], for which the pIC50 is 6.37.

As to `CCOC(=O)C1=C(COCCNC2=NC(=O)CS2)NC(C)=C(C(=O)OC)C1c1ccccc1Cl` (centres unmarked) [Example 74], the pIC50 is 7.70.

Turning to `CCOC(=O)C1=C(COCCNc2cc(N3CCOCC3)ncn2)NC(C)=C(C(=O)OC)C1c1cccc(C(F)(F)F)c1Cl` (centres unmarked) [Example 88, 4-(2-Chloro-3-trifluoromethylphenyl)-3-ethoxycarbonyl-5-methoxycarbonyl-6-methyl-[2-(6-morpholino-pyrimidin-4-ylamino)ethoxymethyl]-1,4-dihydropyridin], the pIC50 is 9.90.

As for `CCOC(=O)C1=C(COCCNc2nc(-c3ccccn3)cc(=O)[nH]2)NC(C)=C(C(=O)OC)C1c1cccc(Cl)c1Cl` (centres unmarked) [Example 44], the pIC50 is 7.80.

Consider `CCOC(=O)C1=C(COCCNc2n[s+]([O-])nc2N)NC(C)=C(C(=O)OC)C1c1ccccc1Cl` (centres unmarked) [Example 68], for which the pIC50 is 7.88.

On to `CCOC(=O)C1=C(COCCNc2n[s+]([O-])nc2OC)NC(C)=C(C(=O)OC)C1c1cccc(Cl)c1Cl` (centres unmarked) [Example 64, 3-{2-[(4-{2,3-Dichlorophenyl}-3-ethoxycarbonyl-5-methoxycarbonyl-6-methyl-1,4-dihydropyrid-2-yl)methoxy]ethylamino}-4-methoxy-1,2,5-thiadiazole-1-oxid], for which the pIC50 is 8.00.

In the case of `CCOC(=O)C1=C(COCCNc2nccs2)NC(C)=C(C(=O)OC)C1c1ccccc1Cl` (centres unmarked) [Example 71, 4-(2-Chlorophenyl)-3-ethoxycarbonyl-5-methoxycarbonyl-6-methyl-2-[2-(thiazol-2-ylamino)ethoxymethyl]-1,4-dihydropyridine], the pIC50 was 8.00.

As for `CCOC(=O)C1=C(COCCNc2cc(=O)[nH]cn2)NC(C)=C(C(=O)OC)C1c1ccccc1Cl` (centres unmarked) [Example 14], the pIC50 is 8.00.

As to `CCOC(=O)C1=C(COCCNc2cc(Cl)ncn2)NC(C)=C(C(=O)OC)C1c1ccccc1Cl` (centres unmarked) [Example 31], the pIC50 was 7.75.

As for `CCOC(=O)C1=C(COCCNc2ccc(S(=O)(=O)N3CCCCC3)cn2)NC(C)=C(C(=O)OC)C1c1cccc(Cl)c1Cl` (centres unmarked) [Example 46], the pIC50 was 8.52.

Consider `CCOC(=O)C1=C(COCCNC2=NC(=O)CS2)NC(C)=C(C(=O)OC)C1c1cccc(C(F)(F)F)c1Cl` (centres unmarked) [Example 75], for which the pIC50 was 8.15.

Take `CCOC(=O)C1=C(COCCNc2nc(C)cs2)NC(C)=C(C(=O)OC)C1c1ccccc1Cl` (centres unmarked) [Example 72]: the pIC50 was 7.40.

As to `CCOC(=O)C1=C(COCCNC2=NC(C)(C)C(=O)N2)NC(C)=C(C(=O)OC)C1c1ccccc1Cl` (centres unmarked) [Example 23], the pIC50 was 7.00.

As for `CCOC(=O)C1=C(COCCNc2cc(N3CCOCC3)ncn2)NC(C)=C(C(=O)OC)C1c1ccccc1Cl` (centres unmarked) [Example 86], the pIC50 was 8.80.

Turning to `CCOC(=O)C1=C(COCCNc2cc(OC)ncn2)NC(C)=C(C(=O)OC)C1c1cccc(Cl)c1Cl` (centres unmarked) [Example 54], the pIC50 was 8.92.

Turning to `CCOC(=O)C1=C(COCCNc2nc(C)cc(=O)[nH]2)NC(C)=C(C(=O)OC)C1c1cccc(Cl)c1Cl` (centres unmarked) [Example 42], the pIC50 is 8.38.

Regarding `CCOC(=O)C1=C(COCCNc2nc(C(C)=O)c[nH]2)NC(C)=C(C(=O)OC)C1c1cccc(Cl)c1Cl` (centres unmarked) [Example 91B, 2-[2-(4-acetylimidazol-2-ylamino)ethoxymethyl]-4-(2,3-dichlorophenyl)-3-ethoxycarbonyl-5-methoxycarbonyl-6-methyl-1,4-dihydropyridine], the pIC50 is 8.60.

With `CCOC(=O)C1=C(COCCNc2nc(N)c3cc(OC)c(OC)cc3n2)NC(C)=C(C(=O)OC)C1c1ccccc1Cl` (centres unmarked) [Example 34], the pIC50 is 7.88.

For the molecule `CCOC(=O)C1=C(COCCNc2n[s+]([O-])nc2OC)NC(C)=C(C(=O)OC)C1c1ccccc1Cl` (centres unmarked) [Example 65], the pIC50 is 7.60.

Regarding `CCOC(=O)C1=C(COCCNc2cc(N3CCN(C)CC3)ncn2)NC(C)=C(C(=O)OC)C1c1cccc(Cl)c1Cl` (centres unmarked) [Example 81], the pIC50 is 8.50.

As to `CCOC(=O)C1=C(COCCNc2n[s+]([O-])nc2N)NC(C)=C(C(=O)OC)C1c1cccc(Cl)c1Cl` (centres unmarked) [Example 67, 3-{2-[(4-{2,3-Dichlorophenyl}-3-ethoxycarbonyl-5-methoxycarbonyl-6-methyl-1,4-dihydropyrid-2-yl)methoxy]ethylamino}-4-amino-1,2,5-thiadiazole-1-oxide hemihydrate], the pIC50 is 7.70.

Regarding `CCOC(=O)C1=C(COCCNc2nccc(=O)[nH]2)NC(C)=C(C(=O)OC)C1c1ccccc1Cl` (centres unmarked) [Example 8, 4-(2-Chlorophenyl)-3-ethoxycarbonyl-5-methoxycarbonyl-6-methyl-2-[2-(3,4-dihydro-4-oxo-pyrimidin-2-ylamino)ethoxymethyl]-1,4-dihydropyridine], the pIC50 was 7.98.

For `CCOC(=O)C1=C(COCCNc2ccnc(N)n2)NC(C)=C(C(=O)OC)C1c1ccccc1Cl` (centres unmarked) [Example 13], the pIC50 is 8.20.

With `CCOC(=O)C1=C(COCCNc2noc(N)n2)NC(C)=C(C(=O)OC)C1c1ccccc1Cl` (centres unmarked) [Example 6, 2-[2-(5-Amino-1,2,4-oxadiazol-3-ylamino)ethoxymethyl]-4-(2-chlorophenyl)-3-ethoxycarbonyl-5-methoxycarbonyl-6-methyl-1,4-dihydropyridine], the pIC50 was 7.94.

In the case of `CCOC(=O)C1=C(COCCNc2nc(N)n[nH]2)NC(C)=C(C(=O)OC)C1c1cccc(C(F)(F)F)c1Cl` (centres unmarked) [Example 2, 2-[2-(3-Amino-1H-1,2,4-triazol-5-ylamino)ethoxymethyl]-4-(2-chloro-3-trifluoromethylphenyl)-3-ethoxycarbonyl-5-methoxycarbonyl-6-methyl-1,4-dihydropyridine], the pIC50 is 8.64.

Turning to `CCOC(=O)C1=C(COCCNc2nc3cc(OC)c(OC)cc3c(=O)[nH]2)NC(C)=C(C(=O)OC)C1c1ccccc1Cl` (centres unmarked) [Example 17], the pIC50 is 7.88.

As for `CCOC(=O)C1=C(COCCNc2ccc(S(N)(=O)=O)cn2)NC(C)=C(C(=O)OC)C1c1ccccc1Cl` (centres unmarked) [Example 35], the pIC50 is 8.24.

As for `CCOC(=O)C1=C(COCCNc2ccc(S(=O)(=O)N3CCN(C=O)CC3)cn2)NC(C)=C(C(=O)OC)C1c1ccccc1Cl` (centres unmarked) [Example 36], the pIC50 is 8.50.

In the case of `CCOC(=O)C1=C(COCCNc2cc(=O)n(C)cn2)NC(C)=C(C(=O)OC)C1c1ccccc1Cl` (centres unmarked) [Example 30], the pIC50 was 8.63.

Turning to `CCOC(=O)C1=C(COCCNc2c[n+]([O-])ccn2)NC(C)=C(C(=O)OC)C1c1cccc(Cl)c1Cl` (centres unmarked) [Example 50, N-oxide of 4-(2,3-dichlorophenyl)-3-ethoxycarbonyl-5-methoxycarbonyl-6-methyl-2-[2-(pyrazin-2-ylamino)ethoxymethyl]-1,4-dihydropyridine], the pIC50 was 8.87.

`CCOC(=O)C1=C(COCCNc2nc(C)cc(=O)[nH]2)NC(C)=C(C(=O)OC)C1c1ccccc1Cl` (centres unmarked) [Example 24]: the pIC50 was 8.00.

For `CCOC(=O)C1=C(COCCNc2nc(-c3ccccc3)cc(=O)[nH]2)NC(C)=C(C(=O)OC)C1c1cccc(Cl)c1Cl` (centres unmarked) [Example 43], the pIC50 was 8.08.

`CCOC(=O)C1=C(COCCNc2nccc(N)n2)NC(C)=C(C(=O)OC)C1c1ccccc1Cl` (centres unmarked) [Example 27]: the pIC50 is 8.40.

Turning to `CCOC(=O)C1=C(COCCNc2noc(N)n2)NC(C)=C(C(=O)OC)C1c1cccc(C(F)(F)F)c1Cl` (centres unmarked) [Example 7], the pIC50 was 8.46.

Turning to `CCOC(=O)C1=C(COCCNc2ccnc(Cl)n2)NC(C)=C(C(=O)OC)C1c1ccccc1Cl` (centres unmarked) [Example 18], the pIC50 was 7.50.

For `CCOC(=O)C1=C(COCCNc2nccnc2Cl)NC(C)=C(C(=O)OC)C1c1cccc(Cl)c1Cl` (centres unmarked) [Example 51], the pIC50 is 8.60.

In the case of `CCOC(=O)C1=C(COCCNc2nc(N)c3cc(OC)c(OC)cc3n2)NC(C)=C(C(=O)OC)C1c1cccc(Cl)c1Cl` (centres unmarked) [Example 48], the pIC50 was 7.53.

For the molecule `CCOC(=O)C1=C(COCCNc2nc3ccccc3nc2Cl)NC(C)=C(C(=O)OC)C1c1cccc(Cl)c1Cl` (centres unmarked) [Example 49], the pIC50 was 8.40.

With `CCOC(=O)C1=C(COCCNc2cncc(Cl)n2)NC(C)=C(C(=O)OC)C1c1cccc(Cl)c1Cl` (centres unmarked) [Example 52], the pIC50 is 8.22.

Take `CCOC(=O)C1=C(COCCNc2ccc(S(=O)(=O)N3CCOCC3)cn2)NC(C)=C(C(=O)OC)C1c1cccc(Cl)c1Cl` (centres unmarked) [Example 45]: the pIC50 was 8.96.

As to `CCOC(=O)C1=C(COCCNc2ncccc2C(N)=O)NC(C)=C(C(=O)OC)C1c1ccccc1Cl` (centres unmarked) [Example 25], the pIC50 is 7.34.

In the case of `CCOC(=O)C1=C(COCCNc2ccc(C(N)=O)cn2)NC(C)=C(C(=O)OC)C1c1cccc(C(F)(F)F)c1Cl` (centres unmarked) [Example 63], the pIC50 is 8.53.

Take `CCOC(=O)C1=C(COCCNc2nccc(=O)[nH]2)NC(C)=C(C(=O)OC)C1c1cccc(Cl)c1Cl` (centres unmarked) [Example 39]: the pIC50 is 8.57.

With `CCOC(=O)C1=C(COCCNc2ccncn2)NC(C)=C(C(=O)OC)C1c1ccccc1Cl` (centres unmarked) [Example 10], the pIC50 is 8.72.

Values taken from patent US4572908A, “Dihydropyridines” (Pfizer Inc., priority 1982, dated 1986).
